This is an account of results in US20100330588A1, “METHOD TO QUANTIFY METHYLTRANSFERASE ACTIVITY” (Utah State University, priority 2009, published 2010).

The assay relates to Histone H3.3. Put plainly: methylation of Histone H3.3 by PRMT6 fusion proteins, reverse phase resin method of scheme 2. It is filed as biochemical. To be noted: 500 nM enzyme; 1.7 μM Histone H3.3; 37° C. On the procedure: Assays were performed at 37° C., in a final volume of 125 μl. Each assay contained 1.0 μM unlabeled S-adenosyl-L-methionine (AdoMet), […] S-adenosyl-L-[methyl-^3H]methionine (specific activity 67.3 Ci/mmol, 0.55 μCi/μl, Perkin Elmer), 100 mM Hepes, 0.38 μM bovine serum albumin (BSA), 10% glycerol, 10 nM AdoHcy Nucleosidase (MTAN), and 1.7 μM protein substrate; pH of reaction was 7.6. […] Samples (10 μL) were removed at specified times and were analyzed using either SDS-PAGE or methods related to the present disclosure, as discussed below.
A 10 µL aliquot of the reaction mixture was transferred to 6 μl of sample preparation buffer (8 M Guanidine-HCL in 2.5% trifluoroacetic acid (TFA)), making the final concentrations 3 M Guanidine-HCL and 0.94% TFA in the mixture. Guanidine-HCl denatures the protein and TFA makes the reaction very acidic so that PRMT activity is quenched. […] Eluate was dispensed into 20 ml of scintillation cocktail (Fisher Scientific) and counted in a LSC.
Referring now to FIG. 4, there is shown the comparison of the methylation activities of GST-PRMT6 and His-PRMT6 using the method disclosed in scheme 2. […] The reactions were processed and counted in scintillation cocktail.

Regarding “His-PRMT6: His-tagged PRMT6 protein arginine methyltransferase expressed in E. coli BL21 and purified”, the “fold higher methylation activity compared to GST-PRMT6” value was 5 fold.
